Data: patent US12686690B2, “Macrocyclic urea orexin receptor agonists” (Merck Sharp & Dohme LLC, priority 2020, dated 2026)

Target: T1, hOX2R (Homo sapiens, UniProt O43614)
T1 construct: expressed in transfected cells; host or cells: CHO cells (G418 selection)
T1 sequence (O43614 1-444): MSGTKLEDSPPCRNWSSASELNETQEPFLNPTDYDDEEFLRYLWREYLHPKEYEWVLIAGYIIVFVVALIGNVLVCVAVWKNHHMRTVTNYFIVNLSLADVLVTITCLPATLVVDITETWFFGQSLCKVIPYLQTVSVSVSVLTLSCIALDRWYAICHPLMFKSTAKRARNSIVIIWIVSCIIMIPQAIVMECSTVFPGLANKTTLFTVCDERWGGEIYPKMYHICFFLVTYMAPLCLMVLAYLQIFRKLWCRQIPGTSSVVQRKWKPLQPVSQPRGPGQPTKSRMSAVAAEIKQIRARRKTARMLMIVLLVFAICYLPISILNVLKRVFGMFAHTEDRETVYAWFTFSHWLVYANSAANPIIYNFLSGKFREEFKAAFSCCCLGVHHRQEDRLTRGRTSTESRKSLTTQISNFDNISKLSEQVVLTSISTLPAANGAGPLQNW
Experiment: hOX2R IPone assay (orexin receptor agonism)
Type: cell-based
Conditions: IPone readout; for hOX2R_Ipone max %act: maximal activation; for EC50: orexin receptor agonist, read-out: hOX2R_IPone EC50

Compound	hOX2R_Ipone max %act	EC50
CCN1C(=O)NC(C(N)=O)CCCCCOc2nc(cn3ccnc23)-c2cc(ncc2F)[C@H]1C (stereo partly drawn) [Example 225, (3R,E)-4-ethyl-25-fluoro-3-methyl-5-oxo-13-oxa-4,6-diaza-1(6,8)-imidazo[1,2-a]pyrazina-2(4,2)-pyridinacyclotridecaphane-7-carboxamide]	78.64%	286 nM
C[C@@H]1c2cc(c(F)cn2)-c2nc(c3nccn3n2)OCCCCCC(CCC(F)F)NC(=O)N1C1CC1 (stereo partly drawn) [Example 205, (3R,E)-4-cyclopropyl-7-(3,3-difluoropropyl)-25-fluoro-3-methyl-13-oxa-4,6-diaza-1(2,4)-imidazo[2,1-f] [1,2,4] triazina-2(4,2)-pyridinacyclo-tridecaphan-5-one]	104.8%	2.39 nM
CCN1C(=O)NC(C(O)CC(F)(F)F)CCCCCOc2cn3ncnc3c(n2)-c2cc(ncc2OC)C1C [Example 132, (3R,7R,E)-4-ethyl-25-methoxy-3-methyl-7-((R)-3,3,3-trifluoro-1-hydroxypropyl)-13-oxa-4,6-diaza-1(6,8)-[1,2,4]triazolo[1,5-a]pyrazina-2(4,2)-pyridinacyclotridecaphan-5-one]	102.9%	4.98 nM
CCN1C(=O)NC(CC2(C)CC2)CCCCCOc2nc(nn3ccnc23)-c2cc(ncc2OC)[C@H]1C (stereo partly drawn) [Example 206, (3R,E)-4-ethyl-25-methoxy-3-methyl-7-((1-methylcyclo-propyl)methyl)-13-oxa-4,6-diaza-1(2,4)-imidazo[2,1-f] [1,2,4]triazina-2(4,2)-pyridina-cyclotridecaphan-5-one]	107.8%	2.07 nM
CCN1C(=O)NC(COC(C)C)CCCCCOc2nc(cn3ccnc23)-c2cc(ncc2OC)[C@H]1C (stereo partly drawn) [Example 185, (3R,E)-4-ethyl-7-(isopropoxymethyl)-25-methoxy-3-methyl-13-oxa-4,6-diaza-1(6,8)-imidazo[1,2-a]pyrazina-2(4,2)-pyridinacyclotridecaphan-5-one]	102.1%	2.03 nM
CCN1C(=O)N[C@@H](CCC(C)(F)F)CCCCCOc2nc(cc3ncnn23)-c2cc(ncc2OC)[C@H]1C [Example 176]	99.6%	2.97 nM
CCN1C(=O)N[C@@H](CCC(F)(F)F)CCCCCOc2nc(cn3ccnc23)-c2cc(cnc2C)[C@H]1C [Example 78, (12R,16R)-13-ethyl-8,12-dimethyl-16-(3,3,3-trifluoropropyl)-12,13,16,17,18,19,20, 21-octahydro-6,23-(azeno)-11,7-(metheno)imidazo[2,1-c][1,4,9,13,15]oxatet-raazacyclohenicosin-14(15H)-one]	99.0%	1.7 nM
CCN1C(=O)N[C@@H](C)C(F)(F)CCCCOc2nc(cn3ccnc23)-c2cc(ncc2OC)[C@H]1C [Example 141, (3R,7S,E)-4-ethyl-8,8-difluoro-25-methoxy-3,7-dimethyl-13-oxa-4,6-diaza-1(6,8)-imidazo[1,2-a]pyrazina-2(4,2)-pyridinacyclotridecaphan-5-one]	99.01%	8.35 nM
CCN1C(=O)NC(CC2(F)CC2)CCCCCOc2nc(cn3ccnc23)-c2cc(ncc2OC)[C@H]1C (stereo partly drawn) [Example 183, (3R,E)-4-ethyl-7-((1-fluorocyclopropyl)methyl)-25-methoxy-3-methyl-13-oxa-4,6-diaza-1(6,8)-imidazo[1,2-a]pyrazina-2(4,2)-pyridinacyclotridecaphan-5-one]	100.2%	1 nM
CCN1C(=O)N[C@@H](CCC(F)(F)F)CCCCCOc2cc(cc3ccnn23)-c2cc(nnc2OC)[C@H]1C [Example 140, (3R,7R,E)-4-ethyl-26-methoxy-3-methyl-7-(3,3,3-trifluoropropyl)-13-oxa-4,6-diaza-1(5,7)-pyrazolo[1,5-a]pyridina-2(5,3)-pyridazinacyclotridecaphan-5-one]	101.9%	1.4 nM
CCN1C(=O)N[C@@H](CCC(F)(F)F)C/C=C\COc2nc(cn3ncnc23)-c2cc(ncc2OC)C1C(F)(F)F (stereo partly drawn) [Example 33, (16S,18Z)-13-ethyl-8-methoxy-12-(trifluoromethyl)-16-(3,3,3-trifluoropropyl)-12,13,15,16,17,20-hexahydro-14H-6,22-(azeno)-11,7-(metheno) [1,2,4]triazolo[5,1-c] [1,4,10,13,15]oxatetra-azacycloicosin-14-one]	98.8%	335 nM
CCN1C(=O)N[C@@H](CCC(F)(F)F)CCCCCOc2nc(cn3ccnc23)C2=C(C3CC3)N=C(O2)[C@H]1C [Example 211, (9R,13R,E)-14-Cyclopropyl-12-ethyl-13-methyl-9-(3,3,3-trifluoropropyl)-3-oxa-10,12-diaza-1(5,2)-oxazola-2(6,8)-imidazo[1,2-a]pyrazinacyclotridecaphan-11-one]	99.83%	1.13 nM
CCN1C(=O)N[C@@H](CCC(F)(F)F)CCCCCOc2nc(cn3ncnc23)-c2ccnc(c2)[C@H]1C [Example 142, (3R,7R,E)-4-ethyl-3-methyl-7-(3,3,3-trifluoropropyl)-13-oxa-4,6-diaza-1(6,8)-[1,2,4]triazolo[1,5-a]pyrazina-2(4,2)-pyridinacyclotridecaphan-5-one]	100.3%	4.71 nM
CCN1C(=O)N[C@@H](CCC(F)(F)F)CCOCCOc2cc(cn3ncnc23)-c2cc(ncc2OC)[C@H]1C [Example 150, (3R,7S,E)-4-ethyl-25-methoxy-3-methyl-7-(3,3,3-trifluoropropyl)-10,13-dioxa-4,6-diaza-1(6,8)-[1,2,4]triazolo[1,5-a]pyridina-2(4,2)-pyridinacyclotridecaphan-5-one]	103%	2.43 nM
CCN1C(=O)NCCC2CCC(C2)Oc2nc(cn3ccnc23)-c2cccc(c2)[C@H]1C (single isomer, unassigned) [Example 1A]	92.5%	1050 nM
CCN1C(=O)N[C@@H](CCC(F)F)CCCCCOc2nc(cn3ncnc23)-c2cc(ncc2Cl)[C@H]1C [Example 128, (3R,7R,E)-25-chloro-7-(3,3-difluoropropyl)-4-ethyl-3-methyl-13-oxa-4,6-diaza-1(6,8)-[1,2,4]triazolo[1,5-a]pyrazina-2(4,2)-pyridinacyclotridecaphan-5-one]	102.9%	11.2 nM
CCN1C(=O)N[C@@H](CCC(F)(F)F)CCC(O)CCOc2nc(cn3ccnc23)-c2cc(cnc2C)[C@H]1C (single isomer, unassigned) [Example 137]	100.7%	4.66 nM
CCN1C(=O)N[C@@H](CC(F)(F)F)CCCCCOc2nc(nn3ccnc23)-c2ccnc(c2)[C@H]1C [Example 101, (12R,16R)-13-ethyl-12-methyl-16-(2,2,2-trifluoroethyl)-12,13,16,17,18,19,20, 21-octahydro-6,23-(azeno)-11,7-(metheno)imidazo[2,1-c][1,4,5,10,13,15] oxapentaazacycloheni-cosin-14(15H)-one]	97.69%	248 nM

More lines, now with the values ahead:

hOX2R_Ipone max %act	EC50	Compound
98.1%	105 nM	CCN1C(=O)N[C@@H](CCC(F)(F)F)CCCCCOc2nc(cn3ccnc23)-c2cc(ccn2)[C@@H]1C [Example 113A, (12S,16R)-13-ethyl-12-methyl-16-(3,3,3-trifluoropropyl)-12,13,16,17,18,19,20,21-octahydro-6,23-(azeno)-11,7-(metheno)imidazo[2,1-c][1,4,8,13,15]oxatetraazacyclohenicosin-14(15H)-one]
102.9%	9.6 nM	CCN1C(=O)NC(CC2(C(F)(F)F)CC2)CCCCCOc2nc(cn3ccnc23)-c2cc(ncc2OC)[C@H]1C (single isomer, unassigned) [Example 66A]
100.3%	11.9 nM	CCN1C(=O)N[C@@H](CCC(F)(F)F)CCCCCOc2cc(cn3ccnc23)-c2cc(ncn2)C1C (single isomer, unassigned) [Example 96A]
100.7%	1 nM	CCCC1CCCCCOc2nc(cn3ccnc23)-c2cc(ncc2OC)[C@@H](C)N(CC)C(=O)N1 (single isomer, unassigned) [Example 54B]
100.9%	3.3 nM	CCN1C(=O)N[C@@H](CCC(F)(F)F)CCCCCOc2nc(cn3ccnc23)-c2cc(ccn2)[C@H]1C [Example 113B, (12R,16R)-13-ethyl-12-methyl-16-(3,3,3-trifluoropropyl)-12,13,16,17,18,19,20,21-octahydro-6,23-(azeno)-11,7-(metheno)imidazo[2,1-c][1,4,8,13,15]oxatetraazacyclohenicosin-14(15H)-one]
101%	64 nM	CCN1C(=O)N[C@@H](CCC(F)(F)F)CCCCOc2nc(cn3cc(C)nc23)-c2cc(ncc2OC)C1C(F)(F)F (single isomer, unassigned) [Example 36A]
99.7%	2.6 nM	CCN1C(=O)N[C@@H](CCC(F)(F)F)CCCCCOc2nc(cn3ccnc23)-c2cc(cc(C)n2)[C@H]1C [Example 118B, (12R,16R)-13-ethyl-9,12-dimethyl-16-(3,3,3-trifluoropropyl)-12,13,16,17,18,19,20,21-octahydro-6,23-(azeno)-11,7-(metheno)imidazo[2,1-c][1,4,8,13,15]oxatetraazacyclohenicosin-14(15H)-one]
